According to article PMC6368403, “Identification of a bilirubin receptor that may mediate a component of cholestatic itch” (eLife, 2019):

Tests used:
[1] = tested on: mice; assay: Cheek injection model: scratching bouts and wiping; format: in vivo, mouse
Method: All applicable behavioral tests were performed and analysed with the experimenter blind to genotype. […] There were no significant differences in itch between male and female mice. […] On the day before the experiment, animals were placed in the test chamber for 30 min before being subjected to a series of three mock injections with 5 min break periods in between. On the day of the experiment, animals were first allowed to acclimatize to the test chamber for 10 min before injection. […] A bout of scratching was defined as a continuous scratching movement with either hindpaw directed at the area of the injection site. In the cheek injection model, a wipe was defined as a single forepaw stroking the site of the injection. Use of both forepaws on the face or cheek was considered as grooming behavior. […] For H1R block, 30 mg/kg of cetirizine HCl (pH 7.4) was given intraperitoneally thirty minutes prior to injection of bilirubin. Licking behavior was quantified in seconds and identified as the licking of the toes or footpad of the hind paw site of injection that was neither preceded nor followed by licking of any other portion of the body.

[2] = tested on: Mrgprs; assay: Ca2+ imaging screen of HEK293 cells transiently expressing other Mrgprs (MRGPRA3, MRGPRD, MRGPRX1, MRGPRX2 and others); format: cell-based; conditions: 50 µM bilirubin, 12 Mrgprs screened
Method: All cultured cells were maintained in DMEM supplemented with 10% FBS and 1% Penicillin/Streptomycin at 37°C, 5% CO2. All data included were generated from cells tested for mycoplasma and found to be negative. Cells were imaged in calcium imaging buffer (CIB; 10 mM HEPES, 1.2 mM NaHCO3, 130 mM NaCl, 3 mM KCl, 2.5 mM CaCl2, 0.6 mM MgCl2, 20 mM glucose, and 20 mM sucrose at pH 7.4 and 290–300 mOsm). To monitor changes in intracellular [Ca^2+] ([Ca^2+]i), cells were loaded with either Fura 2-AM (HEK293 cells) or Fluo 4-AM (DRG neurons and mast cells) for 30 min in the dark at 37°C in CIB just prior to imaging. With Fura 2-AM, emission at 510 nm was monitored from excitation at both 340 nm and 380 nm. With Fluo 4-AM, emission at 520 nm was monitored from excitation at 488 nm. Cells were identified as responding if the intracellular [Ca^2+] rose by either 50% compared to baseline or 50% compared to the [Ca^2+]i change assayed during addition of 50 mM KCl (neurons only). […]
In initial screens, HEK293 cells stably expressing the murine G-protein alpha-subunit Gα15, a unique Gα protein that non-selectively couples a large variety of GPCRs to phospholipase C ^30, were plated on poly-D-lysine-coated coverslips and transiently transfected with constructs encoding the MRGRPR of interest. […] Response was then monitored at 5 s intervals for an additional 60 s.

[3] = tested on: DRG sensory neurons; assay: In vivo DRG calcium imaging in Pirt-Cre; lsl-GCaMP6s animals; set-up: species or system mouse; conditions: 5 μL of 100 μM bilirubin into the paw of GCaMP6s mice
Method: Adult mice expressing Pirt-Cre and lox-stop-lox GCaMP6s were anesthetized by i.p. injection of chloral hydrate (20 μl/gram of 25 mg/ml solution). The back was shaved and disinfected with alcohol before application of ophthalmic ointment (Lacrilube; Allergen Pharmaceuticals). A dorsal laminectomy was performed below the lumbar enlargement (L5) targeting S1. During the procedure, care was taken to keep dura intact. A 2 cm incision was made at the lumbar enlargement. 0.1 mL of 1% lidocaine was injected into paravertebral muscles before dissection to expose L3–L5 vertebrae. Using rongeurs, the surface aspect of the L4 DRG transverse process was removed and the underlying DRG exposed. Mice were laid abdomen-down on a custom-designed microscope stage and the spinal column was secured at two sites using clamps. Images were acquired using a laser-scanning confocal microscope (Leica LSI microscope) equipped with a […] 0.5 NA macro dry objective and fast EM-CCD camera. Live images were acquired at 8 to 10 frames in frame-scan mode per 7–8 s, at depths of […] below the dura with the DRG in the focal plane. […]
Raw image stacks were collected, deconvoluted, and imported into ImageJ (NIH). […] Calcium signaling amplitudes were expressed as Ft /F0 as a function of time. […]

C=CC1=C(C)/C(=C/c2[nH]c(Cc3[nH]c(/C=C4\NC(=O)C(C)=C4C=C)c(C)c3CCC(=O)O)c(CCC(=O)O)c2C)NC1=O [bilirubin, bilirubin IXα]
Wiping ([1]; 6 µg bilirubin into the cheek, 10 min): neither wiping | Scratching after cheek injection ([1]; cheek, 10 µl, 30 min): prompted dose-dependent scratching | Calcium response of other Mrgprs to bilirubin [2]: No other Mrgpr among the 12 that we screened responded | Activation of DRG sensory neurons in vivo [3]: activated numerous DRG sensory neurons
